Consider eight compounds from patent US20100266623A1, “SYNTHETIC, SELF ADJUVANTING VACCINES” (priority 2008, published 2010).

One assay deals with anti-DNP antibodies. Kind of assay: Inhibition ELISA for specificity of anti-DNP antibodies on DNP-BSA coated plates. The conditions noted are these: for inhibition of antibody binding to DNP-BSA coated plates by irrelevant inhibitors: sera not specified; for inhibition of antibody binding to DNP-BSA coated plates: inhibitor dilutions from 25 nmol/well. Format: binding, BALB/c mice. As to the method: Competitive ELISA assays involved an extra step whereby ½ log dilutions of inhibitors in BSA5PBST beginning at 25 nmol/well were added to a constant limiting concentration of antibody in BSA5PBST and incubated for 2 hours on separate polyvinyl plates during the blocking step of a regular ELISA. 50 μl/well of the inhibitor and sera mixtures were then transferred to coated, blocked and washed plates and incubated overnight. Plates were then conjugated with HRP-RαM, developed, and read as per ELISA. The percentage of inhibition was determined by the following formula: […]
Inhibition ELISAs were utilised to determine whether antibody-titres detected in previous direct-binding ELISAs consisted mainly of anti-DNP antibodies. All immunogens (peptide- and protein-based) incorporated the 2,4-DNP isomer.
Sera were incubated with different amounts of various inhibitors (FIG. 14) before addition to DNP-BSA coated plates.

Assay [1] deals with anti-amphetamine antibodies. Kind of assay: Competitive ELISA for specificity of anti-amphetamine antibodies. Type of assay: binding. Particulars: 2° sera of mice immunised with lipidated amphetamine-TH(MV); coat 5 μg per ml.
[2] abbreviates: 2° sera of BALB/c mice immunised with DNP-BSA in CFA.
The mark [3] stands for this setting: 2° sera of BALB/c mice immunised with lipidated DNP-TH(MV).

Where a name gives a salt, the structure may show the parent alone. Where no end group is shown, it is not given here.

Take `Oc1ccccc1` [phenol]: in the assay with anti-DNP antibodies, the “inhibition of antibody binding to DNP-BSA coated plates by irrelevant inhibitors” value is “no inhibition”.
Take `COC(=O)[C@H]1[C@@H](OC(=O)c2ccccc2)C[C@@H]2CC[C@H]1N2C` [cocaine hydrochloride]: the “inhibition of antibody binding to amphetamine-TH(ova) coated plates” value in assay [1] is “No inhibition”.
In the case of `N[C@@H](Cc1ccc(O)cc1)C(=O)O` [tyrosine], the “inhibition of antibody binding to DNP-BSA coated plates by irrelevant inhibitors” value with anti-DNP antibodies is reported as “no inhibition”.
Take `O=C(O)CCCCCNc1ccc([N+](=O)[O-])cc1[N+](=O)[O-]` [2,4-DNP-ahx, 2,4-dinitrophenol-ε-amino-n-caproic acid]: the “inhibition of antibody binding to DNP-BSA coated plates” value in the assay on anti-DNP antibodies (setting [2]) is on record as “approximately 55%”; in the assay with anti-DNP antibodies (setting [3]), “approximately 80%”.
For `CN[C@@H](C)Cc1ccccc1` [Methamphetamine hydrochloride], the “inhibition of antibody binding to amphetamine-TH(ova) coated plates” value in assay [1] was “No inhibition”.
Take `O=[N+]([O-])c1ccc(O)c([N+](=O)[O-])c1` [2,4-DNP, 2,4-dinitrophenol]: the results for the “inhibition of antibody binding to DNP-BSA coated plates” value with anti-DNP antibodies (setting [2]) and in the assay on anti-DNP antibodies (setting [3]) were “No inhibition” and 35%, respectively.
`C[C@H](N)Cc1ccccc1` [Amphetamine-sulfate, D-amphetamine sulfate]: the “inhibition of antibody binding to amphetamine-TH(ova) coated plates” value in assay [1] is “low level of inhibition”.
Still for that read-out and setting: the value for “amphetamine-TH(Flu): succinyl amphetamine-Lys-TH(Flu) peptide, no lipid; coating antigen and inhibitor (KALNNRFQIKGVELKS; not fully specified)” was “lower level of inhibition”.
